From patent US20230263758A1, “COMPOSITIONS OF EDTA HAVING ACTIVITY AGAINST PLANKTONIC AND BIOFILM CELLS OF CLINICALLY RELEVANT PATHOGENS” (SterileCare Inc., priority 2022, published 2023)

Assays:
[1] = test system: C. albicans ON47; assay: Checkerboard FBEC index, 48-h biofilm; format: cell-based, Candida albicans; settings: EDTA + chlorhexidine HCl
Protocol: In step (4), microtiter plates are incubated at 37° C. for 24 h. then (6), after incubation, the bacterial and fungal cells were dislodged from the pegs into the recovery medium described above.
Three 10-μL aliquots, for a total of 30 μL from each well of recovery medium, were spotted on MH agar plates and incubated for 24 h at 37° C.

[2] = test system: Escherichia coli ON29; assay: MBC/MFC determination; format: cell-based; settings: E. coli ON29; agent alone
Protocol: (§1) An assay was made using a minimum inhibitory concentration (MIC) and minimum bactericidal concentration (MBC) and minimum fungicidal concentration (MFC) determination. The MIC was determined by the micro broth dilution method in 96-well plates. Serial two-fold dilutions of tetrasodium EDTA (from 2% to 0.015%), ethanol (from 50% to 0.1%) and chlorhexidine HCl (from 100 μg/mL to 0.025 μg/mL) were prepared in MH broth with a final volume of 90 μL per well. A 10 μL containing 1×10^5 bacterial cells or 2×10^3 fungal cells were added to each well. The inoculated plates were covered with a lid, sealed with Parafilm, and incubated for 24 h at 37° C. with slight rocking on a tilting platform shaker. After incubation, the optical density at 600 nm (OD 600) of the cultures in each well was measured using an xMark™ Microplate Absorbance Spectrophotometer (Bio-Rad). […] MBCs and MFCs were determined by transferring 100 μL from each well with no apparent growth onto appropriate agar plates, followed by incubation for 24 h at 37° C.

[3] = test system: Stenotrophomonas maltophilia ON17; assay: MBC/MFC determination; format: cell-based; settings: S. maltophilia ON17; agent alone
Protocol: as §1

[4] = test system: Staphylococcus epidermidis ON170; assay: MBC/MFC determination; format: cell-based; settings: S. epidermidis ON170; agent alone
Protocol: as §1

[5] = test system: Candida albicans SK4b; assay: MBC/MFC determination; format: cell-based; settings: C. albicans SK4b; agent alone
Protocol: as §1

[6] = test system: Proteus mirabilis ON153; assay: MBC/MFC determination; format: cell-based; settings: P. mirabilis ON153; agent alone
Protocol: as §1

[7] = test system: Serratia marcescens SK2; assay: MBC/MFC determination; format: cell-based; settings: S. marcescens SK2; agent alone
Protocol: as §1

[8] = test system: Pseudomonas aeruginosa SK1; assay: MBC/MFC determination; format: cell-based; settings: P. aeruginosa SK1; agent alone
Protocol: as §1

[9] = test system: Staphylococcus aureus ON89; assay: MBC/MFC determination; format: cell-based; settings: S. aureus ON89; agent alone
Protocol: as §1

## O=C([O-])CN(CCN(CC(=O)[O-])CC(=O)[O-])CC(=O)[O-].[Na+].[Na+].[Na+].[Na+] [EDTA, tetrasodium EDTA]
[1]
  Biofilm eradication concentration in combination (FBEC): 0.031 % w/v
[2]
  MBC/MFC: 1 % w/v
[3]
  MBC/MFC: 1 % w/v
[4]
  MBC/MFC: 0.5 % w/v
[5]
  MBC/MFC: 1 % w/v
[6]
  MBC/MFC: 2 % w/v
[7]
  MBC/MFC: 2 % w/v
[8]
  MBC/MFC: 1 % w/v
[9]
  MBC/MFC: 1 % w/v
